Key:
[1] = test system: NMDA excitotoxicity or experimental animal models for epilepsy, cerebral ischemia; conditions: literature; cited from earlier work
[2] = test system: primary rat hippocampal cultures; assay: Inhibition of kainic acid neurotoxicity (LDH release) in primary rat hippocampal cultures; format: cell-based; conditions: Hippocampal neuron; 300 μM kainic acid, 24 hours, primary rat hippocampal neurons, lactate dehydrogenase release
Protocol: 1) Inhibition of kainic acid neurotoxicity
The effect of the compound of the present invention for inhibiting kainic acid neurotoxicity was studied using primary rat hippocampal cultures.
(1) Incubation conditions
The hippocampus was dissected from a brain of the 18 to 20-day-old fetal rat and was subjected to enzyme treatment with papain and DNase I to disperse the cells. The cells so obtained were suspended in MEM containing 10% serum and plated on poly-L-lysine coated 48-well plates at a density of 4×10^5 cells/cm^2. Twenty four hours later, the medium was replaced by a serum-free medium. The medium was changed twice a week. The cells which were cultured for at least 6 days were provided for the following test.
(2) Inhibition against kainic acid neurotoxicity
Neurotoxicity was assessed by an activity of lactate dehydrogenase released into the culture medium from destroyed cells. As a control, neurons which were exposed to a serum-free medium containing 300 μM kainic acid for 24 hours were used. Each compound, together with 300 μM kainic acid, was allowed to act on the neuron for 24 hours and inhibitory action of each compound against kainic acid neurotoxicity was evaluated.

DBA/2 mice = assay: Audiogenic seizure inhibitory action (anticonvulsant effect) in DBA/2 mice; format: in vivo; conditions: Mus musculus, ip, 0.75 h; i.p. 45 minutes before sound stimulation (12 kHz, 120 dB); ten male 21 to 28-day-old mice; read-out: Anticonvulsant effect for audiogenic seizure in DBA/2 mice, minimum effective dose
Protocol: 2) Measurement of audiogenic seizure inhibitory action in DBA/2 mice
The test compound was suspended in a 0.5% methylcellulose solution and the resulting suspension was intraperitoneally administered 45 minutes before the stimulation by the sound. The drug efficacy was evaluated by presence or absence of the appearance of seizure and the minimum effective dose was determined.

[3] = test system: experimental animal model for cerebral ischemia; conditions: literature; cited from earlier work
AMPA receptor = conditions: literature; cited from earlier work
AMPA-induced cell death = conditions: literature; cited from earlier work

| Compound | IC50 [2] | minimal effective dose (DBA/2 mice) | effect in experimental animal model for cerebral ischemia [3] | also measured |
| --- | --- | --- | --- | --- |
| NC(CCCP(=O)(O)O)C(=O)O (centres unmarked) [2-amino-5-phosphonovaleric acid] |  |  |  | protective effect against NMDA excitotoxicity or in experimental animal models for epilepsy, cerebral ischemia, etc. [1]: protective against NMDA excitotoxicity or in experimental animal models for epilepsy, cerebral ischemia, etc. |
| NC(CCCCCP(=O)(O)O)C(=O)O (centres unmarked) [2-amino-7-phosphonoheptanoic acid] |  |  |  | protective effect against NMDA excitotoxicity or in experimental animal models for epilepsy, cerebral ischemia, etc. [1]: protective against NMDA excitotoxicity or in experimental animal models for epilepsy, cerebral ischemia, etc. |
| CN(c1ccc(Br)cc1)c1nc(=O)c2cccnc2s1 [16-2), 2-[N-(4-Bromophenyl)-N-methylamino]-4H-pyrido[3,2-e]-1,3-thiazin-4-one] | 1000 nM | 30 mg/kg |  |  |
| CN(c1ccc(Cl)cc1)c1nc(=O)c2cccnc2s1 [Example 64, 2-[N-(4-Chlorophenyl)-N-methylamino]-4H pyrido[3,2-e]-1,3-thiazin-4-one] | 1400 nM | 10 mg/kg |  |  |
| Cc1cccc(N(C)c2nc(=O)c3cccnc3s2)c1 [Example 72, 2-[N-Methyl-N-(3-methylphenyl)amino]-4H-pyrido[3,2-e]-1,3-thiazin-4-one] | 1900 nM | 30 mg/kg |  |  |
| CC1=NN=C(c2ccc(N)cc2)c2cc3c(cc2C1)OCO3 [GYKI52466] |  |  | effective in an experimental animal model for cerebral ischemia | effect on AMPA receptor desensitization (AMPA receptor): counteracts the inhibition of desensitization by cyclothiazide |
| NC1CCN(O)C1=O (centres unmarked) [HA-966] |  |  | effective in an experimental animal model for cerebral ischemia |  |
| NS(=O)(=O)c1cccc2c1c([N+](=O)[O-])cc1[nH]c(=O)c(=O)[nH]c12 [NBQX] |  |  | effective in the experimental animal model for cerebral ischemia |  |
| NS(=O)(=O)c1cc2c(cc1Cl)NC(C1CC3C=CC1C3)NS2(=O)=O (centres unmarked) [cyclothiazide] |  |  |  | effect on AMPA-induced cell death (AMPA-induced cell death): accelerate AMPA-induced cell death; effect on AMPA receptor desensitization (AMPA receptor): desensitization inhibitor |

From patent US6133258A, “Inhibitor of kainic acid neurotoxicity and pyridothiazine derivative” (Yamanouchi Pharmaceutical Co., Ltd., priority 1995, dated 2000)
